Source: patent US8802597B2, “Herbicidal pyrimidines” (E I du Pont de Nemours and Company, priority 2003, dated 2014)

Legend:
Test in all cases: Test G pre/postemergence
Format in all cases: in vivo
[1] = tested on: common sowthistle (Sonchus oleraceous)
Method in brief: (§1)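 Test chemicals in a non-phytotoxic solvent blend with surfactant are applied to soil after seeding or to foliage of 2–18 cm seedlings. Greenhouse response is scored visually at 12–21 days on a 0 to 100 control scale.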

[2] = tested on: bermudagrass (Cynodon dactylon)
Method in brief: as §1

[3] = tested on: Canada horseweed (Conyza canadensis)
Method in brief: as §1

[4] = tested on: common purslane (Portulaca oleracea)
Method in brief: as §1

[5] = tested on: purple nutsedge (Cyperus rotundus)
Method in brief: as §1

[6] = tested on: pitted morningglory (Ipomoea lacunosa)
Method in brief: as §1

[7] = tested on: spanishneedles (Bidens bipinnata)
Method in brief: as §1

[8] = tested on: large crabgrass (Digitaria sanguinalis)
Method in brief: as §1

[9] = tested on: prickly sida (Sida spinosa)
Method in brief: as §1

[10] = tested on: green foxtail (Setaria viridis)
Method in brief: as §1

[11] = tested on: common chickweed (Stellaria media)
Method in brief: as §1

[12] = Postemergence, 250 g ai/ha, scale 0 to 100
[13] = Postemergence, 500 g ai/ha, scale 0 to 100
[14] = Postemergence, 62 g ai/ha, scale 0 to 100
[15] = Postemergence, 125 g ai/ha, scale 0 to 100
[16] = Postemergence, 375 g ai/ha, scale 0 to 100
[17] = Preemergence, 62 g ai/ha, scale 0-100
[18] = Preemergence, 125 g ai/ha, scale 0-100
[19] = Preemergence, 250 g ai/ha, scale 0-100
[20] = Preemergence, 500 g ai/ha, scale 0-100
[21] = Preemergence, 500 g ai/ha, scale 0 to 100
[22] = Preemergence, 375 g ai/ha, scale 0 to 100

## CCOC(=O)c1nc(C2CC2)nc(N)c1Br [Compound 1, ethyl 6-amino-5-bromo-2-cyclopropyl-4-pyrimidinecarboxylate]
[1]; [12]
  Plant response rating, Sowthistle: 95
[1]; [13]
  Plant response rating, Sowthistle: 100
[1]; [14]
  Plant response rating, Sowthistle: 95
[1]; [15]
  Plant response rating, Sowthistle: 95
[1]; [16]
  Plant response rating, Sowthistle: 95
[1]; [17]
  Plant response rating, Sowthistle: 95
[1]; [18]
  Plant response rating, Sowthistle: 100
[1]; [19]
  Plant response rating, Sowthistle: 100
[1]; [20]
  Plant response rating, Sowthistle: 100
[1]; [21]
  Plant response rating, Sowthistle: 100
[2]; [12]
  Plant response rating, Bermudagrass: 40
[2]; [13]
  Plant response rating, Bermudagrass: 50
[2]; [14]
  Plant response rating, Bermudagrass: 25
[2]; [15]
  Plant response rating, Bermudagrass: 25
[2]; [16]
  Plant response rating, Bermudagrass: 40
[2]; [17]
  Plant response rating, Bermudagrass: 10
[2]; [18]
  Plant response rating, Bermudagrass: 20
[2]; [19]
  Plant response rating, Bermudagrass: 30
[2]; [21]
  Plant response rating, Bermudagrass: 70
[2]; [22]
  Plant response rating, Bermudagrass: 70
[3]; [12]
  Plant response rating, Horseweed: 100
[3]; [13]
  Plant response rating, Horseweed: 100
[3]; [15]
  Plant response rating, Horseweed: 70
[3]; [16]
  Plant response rating, Horseweed: 100
[3]; [17]
  Plant response rating, Horseweed: 95
[3]; [18]
  Plant response rating, Horseweed: 95
[3]; [19]
  Plant response rating, Horseweed: 100
[3]; [21]
  Plant response rating, Horseweed: 100
[3]; [22]
  Plant response rating, Horseweed: 100
[4]; [12]
  Plant response rating, Purslane: 100
[4]; [13]
  Plant response rating, Purslane: 100
[4]; [14]
  Plant response rating, Purslane: 80
[4]; [15]
  Plant response rating, Purslane: 100
[4]; [16]
  Plant response rating, Purslane: 100
[4]; [17]
  Plant response rating, Purslane: 10
[4]; [18]
  Plant response rating, Purslane: 60
[4]; [19]
  Plant response rating, Purslane: 95
[4]; [20]
  Plant response rating, Purslane: 100
[4]; [21]
  Plant response rating, Purslane: 100
[5]; [12]
  Plant response rating, Nutsedge, Purple: 20
[5]; [13]
  Plant response rating, Nutsedge, Purple: 30
[5]; [15]
  Plant response rating, Nutsedge, Purple: 10
[5]; [16]
  Plant response rating, Nutsedge, Purple: 30
[5]; [17]
  Plant response rating, Nutsedge, Purple: 10
[5]; [18]
  Plant response rating, Nutsedge, Purple: 100
[5]; [19]
  Plant response rating, Nutsedge, Purple: 100
[5]; [20]
  Plant response rating, Nutsedge, Purple: 100
[5]; [21]
  Plant response rating, Nutsedge, Purple: 100
[6]; [12]
  Plant response rating, Morningglory: 100
[6]; [13]
  Plant response rating, Morningglory: 100
[6]; [14]
  Plant response rating, Morningglory: 100
[6]; [15]
  Plant response rating, Morningglory: 100
[6]; [16]
  Plant response rating, Morningglory: 100
[6]; [17]
  Plant response rating, Morningglory: 95
[6]; [18]
  Plant response rating, Morningglory: 100
[6]; [19]
  Plant response rating, Morningglory: 100
[6]; [20]
  Plant response rating, Morningglory: 100
[6]; [21]
  Plant response rating, Morningglory: 100
[7]; [12]
  Plant response rating, Spanishneedles: 95
[7]; [13]
  Plant response rating, Spanishneedles: 95
[7]; [14]
  Plant response rating, Spanishneedles: 80
[7]; [15]
  Plant response rating, Spanishneedles: 95
[7]; [16]
  Plant response rating, Spanishneedles: 95
[7]; [17]
  Plant response rating, Spanishneedles: 100
[7]; [18]
  Plant response rating, Spanishneedles: 100
[7]; [19]
  Plant response rating, Spanishneedles: 100
[7]; [20]
  Plant response rating, Spanishneedles: 100
[7]; [21]
  Plant response rating, Spanishneedles: 100
[8]; [12]
  Plant response rating, Crabgrass, Large: 70
[8]; [13]
  Plant response rating, Crabgrass, Large: 70
[8]; [14]
  Plant response rating, Crabgrass, Large: 50
[8]; [15]
  Plant response rating, Crabgrass, Large: 60
[8]; [16]
  Plant response rating, Crabgrass, Large: 70
[8]; [17]
  Plant response rating, Crabgrass, Large: 20
[8]; [18]
  Plant response rating, Crabgrass, Large: 30
[8]; [19]
  Plant response rating, Crabgrass, Large: 90
[8]; [21]
  Plant response rating, Crabgrass, Large: 90
[8]; [22]
  Plant response rating, Crabgrass, Large: 90
[9]; [12]
  Plant response rating, Prickly Sida: 90
[9]; [13]
  Plant response rating, Prickly Sida: 95
[9]; [14]
  Plant response rating, Prickly Sida: 70
[9]; [15]
  Plant response rating, Prickly Sida: 70
[9]; [16]
  Plant response rating, Prickly Sida: 95
[9]; [17]
  Plant response rating, Prickly Sida: 70
[9]; [18]
  Plant response rating, Prickly Sida: 100
[9]; [19]
  Plant response rating, Prickly Sida: 100
[9]; [20]
  Plant response rating, Prickly Sida: 100
[9]; [21]
  Plant response rating, Prickly Sida: 100
[10]; [12]
  Plant response rating, Foxtail, Green: 30
[10]; [13]
  Plant response rating, Foxtail, Green: 60
[10]; [14]
  Plant response rating, Foxtail, Green: 10
[10]; [15]
  Plant response rating, Foxtail, Green: 20
[10]; [16]
  Plant response rating, Foxtail, Green: 50
[10]; [17]
  Plant response rating, Foxtail, Green: 10
[10]; [18]
  Plant response rating, Foxtail, Green: 10
[10]; [19]
  Plant response rating, Foxtail, Green: 50
[10]; [21]
  Plant response rating, Foxtail, Green: 90
[10]; [22]
  Plant response rating, Foxtail, Green: 90
[11]; [12]
  Plant response rating, Chickweed: 95
[11]; [15]
  Plant response rating, Chickweed: 95
[11]; [16]
  Plant response rating, Chickweed: 100
[11]; [17]
  Plant response rating, Chickweed: 70
[11]; [18]
  Plant response rating, Chickweed: 95
[11]; [19]
  Plant response rating, Chickweed: 95
[11]; [21]
  Plant response rating, Chickweed: 100
[11]; [22]
  Plant response rating, Chickweed: 100

## COC(=O)c1nc(C2CC2)nc(N)c1Cl [Compound 9, methyl 6-amino-5-chloro-2-cyclopropyl-4-pyrimidinecarboxylate]
[2]; [17]
  Plant response rating, Bermudagrass: 10
[2]; [18]
  Plant response rating, Bermudagrass: 95
[2]; [19]
  Plant response rating, Bermudagrass: 95
[2]; [21]
  Plant response rating, Bermudagrass: 100
[3]; [17]
  Plant response rating, Horseweed: 100
[3]; [18]
  Plant response rating, Horseweed: 100
[3]; [19]
  Plant response rating, Horseweed: 100
[3]; [21]
  Plant response rating, Horseweed: 100
[6]; [17]
  Plant response rating, Morningglory: 70
[6]; [18]
  Plant response rating, Morningglory: 100
[6]; [19]
  Plant response rating, Morningglory: 100
[6]; [21]
  Plant response rating, Morningglory: 100
[7]; [17]
  Plant response rating, Spanishneedles: 100
[7]; [18]
  Plant response rating, Spanishneedles: 100
[7]; [19]
  Plant response rating, Spanishneedles: 100
[7]; [21]
  Plant response rating, Spanishneedles: 100
[8]; [17]
  Plant response rating, Crabgrass, Large: 70
[8]; [18]
  Plant response rating, Crabgrass, Large: 90
[8]; [19]
  Plant response rating, Crabgrass, Large: 90
[8]; [21]
  Plant response rating, Crabgrass, Large: 100
[9]; [17]
  Plant response rating, Prickly Sida: 95
[9]; [18]
  Plant response rating, Prickly Sida: 100
[9]; [19]
  Plant response rating, Prickly Sida: 100
[9]; [21]
  Plant response rating, Prickly Sida: 100
[10]; [17]
  Plant response rating, Foxtail, Green: 20
[10]; [18]
  Plant response rating, Foxtail, Green: 85
[10]; [19]
  Plant response rating, Foxtail, Green: 100
[10]; [21]
  Plant response rating, Foxtail, Green: 100
[11]; [18]
  Plant response rating, Chickweed: 100
[11]; [19]
  Plant response rating, Chickweed: 100
[11]; [21]
  Plant response rating, Chickweed: 100
